Experimental data taken from patent publication US7176313B2, “Anti acid-fast bacterial agent containing pyridonecarboxylic acids as active ingredient” (Daiichi Pharmaceutical Co., Ltd., priority 2000, dated 2007).
≈ marks a conversion by molar mass, not a printed value.

System: RFP-resistant M. tuberculosis
Assay: microbe, parasite or virus in culture
Type: cell-based, Mycobacterium tuberculosis
[1] = RFP-resistant M. tuberculosis No. 44, Table 8 (series 2)
[2] = RFP-resistant M. tuberculosis No. 45, Table 8 (series 2)
[3] = RFP-resistant M. tuberculosis No. 50, Table 8 (series 2)
[4] = RFP-resistant M. tuberculosis No. 51, Table 8 (series 2)
[5] = RFP-resistant M. tuberculosis No. 56, Table 8 (series 2)
[6] = RFP-resistant M. tuberculosis No. 71, Table 8 (series 2)
[7] = RFP-resistant M. tuberculosis No. 97, Table 8 (series 2)
[8] = Mycobacterium tuberculosis, RFP-resistant M. tuberculosis No. 44, Table 8 (series 2)
[9] = Mycobacterium tuberculosis, RFP-resistant M. tuberculosis No. 45, Table 8 (series 2)
[10] = Mycobacterium tuberculosis, RFP-resistant M. tuberculosis No. 50, Table 8 (series 2)
[11] = Mycobacterium tuberculosis, RFP-resistant M. tuberculosis No. 51, Table 8 (series 2)
[12] = Mycobacterium tuberculosis, RFP-resistant M. tuberculosis No. 56, Table 8 (series 2)
[13] = Mycobacterium tuberculosis, RFP-resistant M. tuberculosis No. 71, Table 8 (series 2)
[14] = Mycobacterium tuberculosis, RFP-resistant M. tuberculosis No. 97, Table 8 (series 2)
[15] = Mycobacterium tuberculosis, RFP-resistant M. tuberculosis No. 44, Table 7
[16] = Mycobacterium tuberculosis, RFP-resistant M. tuberculosis No. 45, Table 7
[17] = Mycobacterium tuberculosis, RFP-resistant M. tuberculosis No. 47, Table 7
[18] = Mycobacterium tuberculosis, RFP-resistant M. tuberculosis No. 50, Table 7
[19] = Mycobacterium tuberculosis, RFP-resistant M. tuberculosis No. 56, Table 7
[20] = Mycobacterium tuberculosis, RFP-resistant M. tuberculosis No. 71, Table 7
[21] = Mycobacterium tuberculosis, RFP-resistant M. tuberculosis No. 97, Table 7
[22] = RFP-resistant M. tuberculosis No. 44, Table 7
[23] = RFP-resistant M. tuberculosis No. 50, Table 7

Structure (SMILES)	MIC [8] [µg/mL]	MIC [9] [µg/mL]	MIC [10] [µg/mL]	MIC [11] [µg/mL]	MIC [12] [µg/mL]	MIC [13] [µg/mL]	MIC [14] [µg/mL]	further results
C[C@H]1COc2c(N3CCN[C@@H](c4ccccc4)C3)c(F)cc3c(=O)c(C(=O)O)cn1c23 [Compd. 27, 9-Fluoro-2,3-dihydro-3-(S)-methyl-7-oxo-10-[3-(S)-phenyl-1-piperazinyl]-7H-pyrido[1.2.3-de][1,4]benzoxazine-6-carboxylic acid]	–	–	–	–	–	–	–	MIC [1]: 0.1 µg/mL (≈ 0.236 µM); MIC [2]: 1.56 µg/mL (≈ 3.68 µM); MIC [3]: 0.1 µg/mL (≈ 0.236 µM); MIC [4]: 0.2 µg/mL (≈ 0.472 µM); MIC [5]: 6.25 µg/mL (≈ 14.8 µM); MIC [6]: 0.39 µg/mL (≈ 0.921 µM); MIC [7]: 0.78 µg/mL (≈ 1.84 µM)
COc1c(N2CCNC(C3CC3)C2)c(F)cc2c(=O)c(C(=O)O)cn([C@@H]3C[C@@H]3F)c12 (stereo partly drawn) [Compd. 24, 7-(3-Cyclopropylpiperazin-1-yl)-6-fluoro-1-[(1R,2S)-2-fluorocyclopropyl]-1,4-dihydro-8-methoxy-4-oxoquinoline-3-carboxylic acid]	0.78 (≈ 1.86 µM)	12.5 (≈ 29.8 µM)	0.39 (≈ 0.93 µM)	1.56 (≈ 3.72 µM)	50 (≈ 119 µM)	3.13 (≈ 7.46 µM)	3.13 (≈ 7.46 µM)	–
COc1c(N2CCN3CCC2C3)c(F)cc2c(=O)c(C(=O)O)cn([C@@H]3C[C@@H]3F)c12 (stereo partly drawn) [Compd. 28, 7-{1,4-Diazabicyclo[3.2.1]octan-4-yl}-6-fluoro-1-[(1R,2S)-2-fluorocyclopropyl]-1,4-dihydro-8-methoxy-4-oxoquinoline-3-carboxylic acid]	0.2 (≈ 0.493 µM)	3.13 (≈ 7.72 µM)	0.2 (≈ 0.493 µM)	0.78 (≈ 1.92 µM)	12.5 (≈ 30.8 µM)	1.56 (≈ 3.85 µM)	1.56 (≈ 3.85 µM)	–
COc1c(N2CCN(C)CC2)c(F)cc2c(=O)c(C(=O)O)cn([C@@H]3C[C@@H]3F)c12 [Compd. 15, 6-Fluoro-1-[2-(S)-fluoro-1-(R)-cyclopropyl]-1,4-dihydro-8-methoxy-7-(4-methylpiperazin-1-yl)-4-oxoquinoline-3-carboxylic acid]	–	–	–	–	–	–	–	MIC [15]: 0.2 µg/mL (≈ 0.508 µM); MIC [16]: 1.56 µg/mL (≈ 3.97 µM); MIC [17]: 0.39 µg/mL (≈ 0.991 µM); MIC [18]: 0.2 µg/mL (≈ 0.508 µM); MIC [19]: 6.25 µg/mL (≈ 15.9 µM); MIC [20]: 0.39 µg/mL (≈ 0.991 µM); MIC [21]: 1.56 µg/mL (≈ 3.97 µM)
COc1c(N2CCNC3(CC3)C2)c(F)cc2c(=O)c(C(=O)O)cn([C@@H]3C[C@@H]3F)c12 [Compd. 22, 7-{4,7-Diazaspiro[2.5]octan-7-yl}-6-fluoro-1-[(1R,2S)-2-fluorocyclopropyl]-1,4-dihydro-8-methoxy-4-oxoquinoline-3-carboxylic acid]	0.78 (≈ 1.92 µM)	25 (≈ 61.7 µM)	0.78 (≈ 1.92 µM)	1.56 (≈ 3.85 µM)	100 (≈ 247 µM)	3.13 (≈ 7.72 µM)	6.25 (≈ 15.4 µM)	–
CC1COc2c(N3CCN(C)CC3)c(F)cc3c(=O)c(C(=O)O)cn1c23 (stereo not drawn) [OFLX, OFLOXAIN, reference compound]	–	–	–	–	–	–	–	MIC [22]: 1.56 µg/mL (≈ 4.32 µM); MIC [1]: 2.0 µg/mL (≈ 5.53 µM); MIC (RFP-resistant M. tuberculosis No. 45, Table 7): 25 µg/mL (≈ 69.2 µM); MIC [2]: 3.20 µg/mL (≈ 8.86 µM); MIC (RFP-resistant M. tuberculosis No. 47, Table 8 (series 2)): 8.0 µg/mL (≈ 22.1 µM); MIC [23]: 0.78 µg/mL (≈ 2.16 µM); MIC [3]: 1.0 µg/mL (≈ 2.77 µM); MIC [4]: 4.0 µg/mL (≈ 11.1 µM); MIC [5]: 16 µg/mL (≈ 44.3 µM); MIC [6]: 4.0 µg/mL (≈ 11.1 µM); MIC [7]: 16 µg/mL (≈ 44.3 µM)
COc1c(N2CCN[C@@H](c3ccccc3)C2)c(F)cc2c(=O)c(C(=O)O)cn([C@@H]3C[C@@H]3F)c12.Cl [Compd. 26]	–	–	–	–	–	–	–	MIC [1]: 0.1 µg/mL; MIC [2]: 1.56 µg/mL; MIC [3]: 0.1 µg/mL; MIC [4]: 0.2 µg/mL; MIC [5]: 12.5 µg/mL; MIC [6]: 0.78 µg/mL; MIC [7]: 0.78 µg/mL
COCC1CN(c2c(F)cc3c(=O)c(C(=O)O)cn([C@@H]4C[C@@H]4F)c3c2OC)CCN1 (stereo partly drawn) [Compd. 21, 6-Fluoro-1-[(1R,2S)-2-fluorocyclopropyl]-1,4-dihydro-8-methoxy-7-(3-methoxymethylpiperazin-1-yl)-4-oxoquinoline-3-carboxylic acid]	0.39 (≈ 0.921 µM)	3.13 (≈ 7.39 µM)	0.39 (≈ 0.921 µM)	0.78 (≈ 1.84 µM)	25 (≈ 59 µM)	1.56 (≈ 3.68 µM)	1.56 (≈ 3.68 µM)	–
C[C@H]1COc2c(N3CC(N)C4(CC4)C3)c(F)cc3c(=O)c(C(=O)O)cn1c23 (stereo partly drawn) [Compd. 14]	–	–	–	–	–	–	–	MIC [22]: 0.78 µg/mL (≈ 2.09 µM); MIC [23]: 0.39 µg/mL (≈ 1.04 µM)
CO[C@H]1/C=C/O[C@@]2(C)Oc3c(C)c(O)c4c(O)c(c(/C=N/N5CCN(C)CC5)c(O)c4c3C2=O)NC(=O)/C(C)=C\C=C\[C@H](C)[C@H](O)[C@@H](C)[C@@H](O)[C@@H](C)[C@H](OC(C)=O)[C@@H]1C [RFP, rifampicin, reference compound]	–	–	–	–	–	–	–	MIC [15]: > 100 µg/mL; MIC [16]: > 100 µg/mL; MIC [17]: > 100 µg/mL; MIC [18]: > 100 µg/mL; MIC (Mycobacterium tuberculosis, RFP-resistant M. tuberculosis No. 51, Table 7): > 100 µg/mL; MIC [19]: > 100 µg/mL; MIC [20]: > 100 µg/mL; MIC [21]: > 100 µg/mL
COc1c(N2C[C@@H](C)N[C@@H](C)C2)c(F)cc2c(=O)c(C(=O)O)cn([C@@H]3C[C@@H]3F)c12 [Compd. 16, 7-(3,5-cis-Dimethylpiperazin-1-yl)-6-fluoro-1-[2-(S)-fluoro-1-(R)-cyclopropyl]-1,4-dihydro-8-methoxy-4-oxoquinoline-3-carboxylic acid]	0.25 (≈ 0.614 µM)	4 (≈ 9.82 µM)	0.12 (≈ 0.295 µM)	0.5 (≈ 1.23 µM)	64 (≈ 157 µM)	0.5 (≈ 1.23 µM)	1 (≈ 2.45 µM)	MIC (Mycobacterium tuberculosis, RFP-resistant M. tuberculosis No. 47, Table 8 (series 2)): 0.5 µg/mL (≈ 1.23 µM)
COc1c(C2CNC3(CCC3)CN2)c(F)cc2c(=O)c(C(=O)O)cn([C@@H]3C[C@@H]3F)c12 (stereo partly drawn) [Compd. 23, 7-{5,8-Diazaspiro[3.5]nonan-7-yl}-6-fluoro-1-[(1R,2S)-2-fluorocyclopropyl]-1,4-dihydro-8-methoxy-4-oxoquinoline-3-carboxylic acid]	1.56 (≈ 3.72 µM)	25 (≈ 59.6 µM)	1.56 (≈ 3.72 µM)	6.25 (≈ 14.9 µM)	100 (≈ 238 µM)	12.5 (≈ 29.8 µM)	12.5 (≈ 29.8 µM)	–
COc1c(N2CCNC(CF)(CF)C2)c(F)cc2c(=O)c(C(=O)O)cn([C@@H]3C[C@@H]3F)c12 [Compd. 20, 6-Fluoro-1-[(1R,2S)-2-fluorocyclopropyl]-7-(3,3′-difluoromethylpiperazin-1-yl)-1,4-dihydro-8-methoxy-4-oxoquinoline-3-carboxylic acid]	0.39 (≈ 0.88 µM)	6.25 (≈ 14.1 µM)	0.39 (≈ 0.88 µM)	0.78 (≈ 1.76 µM)	50 (≈ 113 µM)	1.56 (≈ 3.52 µM)	1.56 (≈ 3.52 µM)	–
COc1c(N2CCNC(CF)C2)c(F)cc2c(=O)c(C(=O)O)cn([C@@H]3C[C@@H]3F)c12 (stereo partly drawn) [Compd. 19, 6-Fluoro-1-[(1R,2S)-2-fluorocyclopropyl]-7-(3-fluoromethylpiperazin-1-yl)-1,4-dihydro-8-methoxy-4-oxoquinoline-3-carboxylic acid]	0.39 (≈ 0.948 µM)	3.13 (≈ 7.61 µM)	0.2 (≈ 0.486 µM)	0.78 (≈ 1.9 µM)	50 (≈ 122 µM)	1.56 (≈ 3.79 µM)	1.56 (≈ 3.79 µM)	–
